Common to all, as to test: inhibition of tumour cell growth, NCI panel, 48 h
In test [1] the test system is OVCAR-5 ovarian.
Test [2] deals with MDA-MB-435.
For test [3], the system named is LOX IMVI melanoma.
Test [4] concerns NCI-H226 lung.
In test [5] the test system is MDA-MB-231 breast.
The subject of test [6] is MOLT-4 leukemia.
The test system of test [7] is SR leukemia.
The test system of test [8] is IGROV1 ovarian.
Test [9] deals with SN12C renal.
Test [10] relates to MDA-N.

Results on 24 compounds are retold here after PubChem BioAssay (NCI).

Values joined by “and” are separate entries in the source; they are usually repeats but may differ in a detail not shown here. Equal entries are not always repeated.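 Cultured in 96-well plates, cells were exposed to test compound for 48 hours across five concentrations. GI50: concentration for 50% inhibition of growth. TGI: concentration producing complete growth inhibition.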 A value given as a limit tells only on which side of the number the result lay.

For `S=C1c2ccccc2NC(=NC2CCCC2)C2CSCN12` (stereo not drawn), the TGI in test [1], in [2], in [3], in test [4], in test [5] and in test [6] was above 100 µM each time. For the same compound, the TGI in test [7], in [8] and in [9] was above 100 µM in each case.
As to `O=C(CSc1nc2ccccc2[nH]1)Nc1ccc(-c2nc3ccccc3s2)c(Cl)c1`, the GI50 in test [1] was 3.63 µM; in test [2] it was 3.89 µM; in test [3], 4.95 µM; in [6], above 100 µM; in test [8], 1.6 µM. Also, the TGI is 13.6 µM in [1]; above 100 µM in test [2]; above 100 µM in [3]; above 100 µM in test [6]; 4.99 µM in test [8].
Regarding `C=CC[C@H]1[C@@H](O[Si](C)(C)C(C)(C)C)[C@H](n2ccc(=O)[nH]c2=O)O[C@@H]1CO[Si](C)(C)C(C)(C)C`, the TGI amounted to 3.91 µM in test [1]; 4.36 µM in test [2]; 3.44 µM in test [3]; 18.6 µM in [4]; 5.4 µM in test [5]; 8.66 µM in test [6]. The TGI was determined as 5.95 µM in test [7], 6.05 µM in [8] and 3.32 µM in test [9].
In the case of `CC(=O)C1CC(C)=CCC12C(=O)Nc1ccccc12` (stereo not drawn), the TGI in test [1], in [3], in test [4], in test [6], in test [8] and in [9] was above 100 µM each time.
Regarding `O=C(c1ccc(Cl)cc1)c1ccc(OCC(=O)N2CCN(c3ccccc3)CC2)cc1`, the TGI in test [1], in [3], in test [4], in test [6], in [7] and in test [8] was above 100 µM each time. The compound also registered a TGI in test [9] above 100 µM.
As for `COc1ccc2c3c1OC1CC(O)C=CC31CCN(C)C2` (stereo not drawn), the TGI in [1], in [3], in [4], in test [6], in test [8] and in test [9] was above 150 µM in each case.
With `Cc1ccc(C)n2c1nc1ccc3ccccc3c12`, the TGI in test [1], in test [2], in [4], in [10], in [6] and in test [7] was above 100 µM throughout. The TGI in test [8] and in [9] was above 100 µM in each case.
`C=CCC(C)C12CCNC(Cc3ccc(O)cc31)C2C` (stereo not drawn): the TGI in test [1], in [2], in test [3], in test [4], in [5] and in [6] was above 100 µM throughout. Further, the TGI in test [7], in [8] and in [9] was above 100 µM in each case.
Take `COc1ccc2[nH]c3c(c2c1)CCN(C)CC3`: the TGI in test [1], in test [3], in test [6] and in [8] was above 100 µM throughout.
In the case of `CC(=O)OC[C@H]1O[C@@H](O[C@H]2[C@H](OC(C)=O)C=CO[C@@H]2COC(C)=O)C(OC(C)=O)[C@H]2OC(C)(C)O[C@H]21` (stereo partly drawn), the TGI in [1], in test [2], in test [3], in [4], in test [5] and in test [6] was above 100 µM in each case. The TGI in [7], in test [8] and in test [9] was above 100 µM each time.
On to `CCCCOC(=O)CNC(=O)OCCCCC#CC#CCCCCOC(=O)NCC(=O)OCCCC`, for which the TGI in test [1], in test [3], in [4], in [6], in [7] and in test [8] was above 100 µM in each case. In addition, the TGI in [9] was above 100 µM.
`COC1=CC(=O)c2ccccc2C1(CCC=C(C)C)C1=NC(C)(C)CO1` (stereo not drawn): the TGI in test [4], in [6], in [7], in [8] and in test [9] was above 100 µM in each case.
For `CCOC/N=C(/N)NC#N`, the TGI in [1] is above 100 µM; in [3], 27.1 µM; in test [4], above 100 µM; in [6] it was above 100 µM; in test [7], above 100 µM; in test [8], above 100 µM. This compound also had a TGI in test [9] above 100 µM.
In the case of `CCC1C(=O)C[C@H]2[C@@H]3C(O)CC4=CC(=O)CC[C@]4(C)[C@H]3CC[C@]12C` (stereo partly drawn), the TGI in test [1], in test [2], in test [3], in [5], in test [6] and in [8] was above 50 µM throughout. The compound further came in with a TGI in test [9] above 50 µM.
`Cc1ccc2[nH]cc(-c3nc(-c4c[nH]c5ncccc45)cs3)c2c1`: the GI50 in test [1], in test [2], in test [3], in test [4], in test [5] and in [6] was above 100 µM each time. For the same compound, the GI50 in [8] and in test [9] was above 100 µM throughout. For the same compound, the TGI in test [1], in test [2], in test [3], in [4], in test [5] and in test [6] was above 100 µM throughout. Moreover, the TGI in test [8] and in test [9] was above 100 µM throughout.
For `Cn1ccnc1S/C(=C\C=C(C#N)C#N)c1ccc(Cl)cc1`, the TGI was 7.81 µM in test [1]; 2.45 µM in [2]; 0.443 µM in [3]; above 22.8 µM in test [4]; 15 µM in test [5]; 6.25 µM in test [6]. Moreover, the TGI in [7] was 0.367 µM; in test [8], 16.1 µM; in test [9] it was above 25.7 µM. Further, the GI50 in test [3] is 0.0671 µM; in test [4], 3.97 µM; in test [5], 4.15 µM.
`COc1cccc2cc(C)c(C(=O)c3ccccc3)nc12`: the TGI in [1], in test [3], in test [4], in [6], in [8] and in test [9] was above 100 µM in each case.
As to `N/N=C(\C(=O)Nc1c(Cl)cc([N+](=O)[O-])cc1Cl)C(c1cnc2ccc([N+](=O)[O-])cc2n1)[N+](=O)[O-]` (stereo not drawn), the TGI in test [1], in test [3], in [4], in [6], in test [7] and in test [8] was above 100 µM throughout. In addition, in [9], the TGI was above 100 µM.
With `COC(=O)Cc1ccc2c(c1)Sc1ccc(CC(=O)OC)cc1N2C`, the TGI was above 100 µM in test [1]; above 100 µM in [2]; above 57.1 µM in [3]; above 93.5 µM in [4]; above 100 µM in [5]; above 100 µM in test [6]. Further, the TGI is above 79.1 µM in [7], above 100 µM in test [8] and above 100 µM in [9].
For the compound `CC(=O)C(C(C)=O)=C1CCCC(O)O1` (stereo not drawn), the TGI in test [1], in test [2], in [4], in test [5], in test [6] and in test [7] was above 100 µM in each case. In addition, the TGI in test [8] and in test [9] was above 100 µM in each case.
With `CCCCCc1cc(OC(=O)c2c(O)cc(OC)cc2CCCCC)cc(O)c1C(=O)O`, the TGI in [1] turned out to be 34.1 µM; in [3] it was 33.1 µM; in [6] it was 60 µM; in test [8], 32.5 µM; in [9], 32.8 µM.
Consider `COc1cc(OC)c2c(O)cc(CC(C)O)cc2c1` (stereo not drawn), for which the TGI in test [1], in test [3], in [6], in [7], in [8] and in [9] was above 100 µM in each case.
`O=C1C(Br)=CC2([N+](=O)[O-])CCNc3c(O)c4c5c(c3C2=C1Br)=NCCC=5C=N4` (stereo not drawn): the TGI is 2.39 µM in test [1]; 6.4 µM in test [3]; 6.79 µM in [4]; 4.27 µM in [8]; 5.52 µM in [9].
For `CC(C)C[C@H](NC(=O)[C@H](Cc1cccc2ccccc12)NC(=O)N1CCOCC1)B(O)O`, the GI50 in test [1] was 0.00186 µM; in [2], 0.000136 µM; in test [3], 0.00114 µM; in test [5], 0.00188 µM; in test [6], 0.000339 µM; in test [7], 0.00276 µM. The values for the GI50 in [8] and in test [9] were 0.00408 µM and 0.0029 µM, respectively. In addition, the TGI in test [1] is 0.00534 µM and < 0.0405 µM; in test [2], 0.000308 µM; in test [3], 0.00304 µM; in [4], 0.00049 µM; in [5], 0.00398 µM; in [7], 0.013 µM. Further, the TGI in test [8] is 0.0485 µM; in [9], 0.0115 µM and < 0.0266 µM.
